Laboratory results: a melting point compilation (Tetko et al.; mined from patent text by program, amines drawn as free bases though some values may be those of a salt)

Compared with `CCCC1(C2CCCC2)Cc2cc(OCCCC(=O)O)c(Cl)c(Cl)c2C1=O` (configuration not stated), `COc1cc2c(c(Cl)c1Cl)C(=O)C(c1ccccc1)C2` (configuration not stated) is higher in melting point: 140 to 141 °C for the first, 187 to 192 °C for the second.

First: CC1(C)CC(=O)C(C(=O)NS(=O)(=O)c2ccc(Cl)cc2)C(=O)C1
Second: CC[C@H](C)[C@@H](CO)NS(=O)(=O)c1ccc(Cl)c(N)c1
The melting point of the first is higher: 103 to 106 °C for the first, 89 to 92 °C for the second.

First: Cc1ccc(SC(Cc2ccc(OCCN(C)c3nc4ccccc4o3)cc2)C(=O)O)cc1 (configuration not stated)
Second: COc1cccc(C(=O)c2ccc(OCc3nc(-c4ccccc4)oc3C)cc2)c1O
The melting point of the first is lower: 137 °C for the first, 152 to 153 °C for the second.

First: O=C1Nc2ccc(Br)cc2C(c2ccccc2)=NC1OC(=O)C(F)(F)F (configuration not stated)
Second: COC(=O)c1ccc(C(=O)C=C(c2cc(Cl)cc(C(F)(F)F)c2)C(F)(F)F)c2ccccc12
The melting point of the first is higher: 181 to 183 °C for the first, 90 to 90.5 °C for the second.

First: CN(c1cccc2cc(C3=NCC(CC(=O)O)S3)[nH]c12)S(=O)(=O)c1cccs1 (configuration not stated)
Second: COC(=O)c1cc2ccc(C(=O)NCCc3ccccn3)cc2[nH]1
The melting point of the first is higher: 232 to 234 °C for the first, 191 to 193 °C for the second.

Compared with `CCc1nc(-c2ccc(OCCC3CCN(c4ccc(C)nn4)CC3)cc2)no1`, `CCc1nnc(-c2ccc(OC)cc2)n1-c1ccc(OC)cc1` is lower in melting point: 125 °C for the first, 122 °C for the second.

First: COC(C)(C)C(=O)COc1ccc(Cl)cc1Cl
Second: CCOC(=O)C=Cc1cccc(Cl)c1Cl
The melting point of the first is lower: 45.5 to 47.5 °C for the first, 69 to 70 °C for the second.

First: COc1ccc(Oc2cccc(CCN(C)CCN(O)C(N)=O)c2)cc1
Second: Cc1sc(N)c(C(=O)c2ccc(Cl)cc2)c1CN(C)Cc1ccccc1
The melting point of the first is lower: 87 to 88.5 °C for the first, 114 to 116 °C for the second.

First: Cc1noc(=O)c2ccc(NC(=O)C(=O)CC3(c4ccccc4)CC3)cc12
Second: CNC(=O)Nc1cc(CC(C)C)ccc1-c1ccccc1S(=O)(=O)Nc1onc(C)c1C
The melting point of the first is lower: 155 to 156 °C for the first, 172 to 174 °C for the second.

First: COC(=O)c1cc([N+](=O)[O-])c(C(C)(C)C)c([N+](=O)[O-])c1
Second: COCN1C(C)=C(C(=O)OC)[C@H](c2cccc([N+](=O)[O-])c2)C(C(=O)OCOC(=O)C(C)(C)C)=C1C
The melting point of the first is higher: 115 to 117 °C for the first, 113 to 114 °C for the second.

Compared with `COc1ccc(N=C(C#Cc2ccccc2)N2CCN(Cc3ccc(C)cc3)CC2)cc1Cl`, `COc1ccccc1N1CCN(CCCNC(=O)c2cccc3c(=O)cc(-c4ccccc4)sc23)CC1` is higher in melting point: 113 °C for the first, 144 to 146 °C for the second.

Compared with `Cn1c(Sc2ccccc2)c(C=NO)c(=O)n(C)c1=O`, `Cn1c2ccccc2c2c(C(=O)C(F)(F)F)csc21` is lower in melting point: 152 °C for the first, 138 to 140 °C for the second.

First: OCc1cnn(-c2ccc(OC(F)(F)F)cc2)c1
Second: NC(=O)C(Oc1ccc(Cl)cc1)(C(F)(F)F)C(F)(F)F
The melting point of the first is lower: 73 to 74 °C for the first, 77 to 79 °C for the second.

First: CCCCCCc1cn(C)cc(-c2cccc(C(F)(F)F)c2)c1=O
Second: Cn1ncc2nn(-c3cccc(C(F)(F)F)c3)c(=O)cc21
The melting point of the first is lower: 89.5 to 90.5 °C for the first, 160 to 163 °C for the second.

First: NS(=O)(=O)c1cc2cc(C(=O)NCC(O)CO)sc2s1 (configuration not stated)
Second: CCOC(=O)c1cc(=NS(=O)(=O)c2ccccc2)c2c(Cl)cc(Cl)cc2[nH]1
The melting point of the first is lower: 117 to 118 °C for the first, 184 to 185 °C for the second.

Compared with `CC(C)Sc1c(C(N)=O)n(C)c2ccc(O)cc12`, `Cn1nc(SC2c3cc(C#N)ccc3CC(C)(C)C2O)ccc1=O` (configuration not stated) is higher in melting point: 60 to 62 °C for the first, 149 to 151 °C for the second.

Compared with `Cc1cn(-c2cc(NC(=O)c3cccc(Nc4nccc(-c5cccnc5)n4)c3)cc(C(F)(F)F)c2)cn1`, `COc1cn(-c2ccc(-n3cccn3)cc2F)nc(-c2ccnn2-c2cccc(Cl)c2)c1=O` is lower in melting point: 264 to 266 °C for the first, 186 to 190 °C for the second.

Compared with `Cc1cncc(/C=C/c2cccc(F)c2)n1`, `Cc1cccc(CC(=O)c2ccnc(Br)c2)n1` is higher in melting point: 43 to 44 °C for the first, 126 °C for the second.

First: COc1cc2ncnc(N3CCN(C(=O)Nc4ccc(CN5CCCCC5)cc4)CC3)c2cc1OC
Second: CCCOc1ccc(NC(=O)N2CCN(c3ncnc4cc(OC)c(OC)cc34)CC2)cc1
The melting point of the first is lower: 122 to 123 °C for the first, 218 to 220 °C for the second.

Going from `N#Cc1ccc(C2CC(=O)N(Cc3ccccc3)Cc3cncn32)cc1` (configuration not stated) to `COc1ccc(-c2nnc3c4ccccc4c(Nc4ccc(C#N)cc4)nn23)cc1`, the melting point rises from 65 °C to 314 °C.

First: COc1ccc2nc(NC(=O)C(CC3CCCC3)c3ccc(S(=O)(=O)N4CCN(C(C)=O)CC4)cc3)sc2n1 (configuration not stated)
Second: COc1nc2c(cc1NC(=S)N1CCN(c3cc(C)cc(C)c3)CC1)CCCC2
The melting point of the first is higher: 215 to 217 °C for the first, 200 to 201 °C for the second.

First: Ic1c[nH]c2ncccc12
Second: O=c1[nH]ccc2ncccc12
The melting point of the first is higher: 201 to 204 °C for the first, 156 to 159 °C for the second.

Compared with `CCCSc1ncc(CCCC(=O)O)n1Cc1ccccc1Cl`, `CCCOc1ccccc1-c1nc(C=NNC(=O)OCC)c[nH]1` is higher in melting point: 98 to 99 °C for the first, 129 to 132 °C for the second.

Going from `COC(=O)C#CC(=O)c1ccc(OC)cc1` to `COc1cc(Oc2ccc(C(=O)N(C(C)C)C3CCCCC3)cc2)cc(OC)c1OC`, the melting point rises from 68 °C to 124 °C.

First: O=C(NCC12CC3CC(CC(C3)C1)C2)c1ccccc1C(c1ccc(O)cc1)c1ccc(O)cc1
Second: FC(F)(F)C(c1ccc(Cl)cc1)C(c1ccccc1)c1ccc(OCC2CO2)cc1 (configuration not stated)
The melting point of the first is higher: 149 to 151 °C for the first, 141 to 144 °C for the second.

First: FC(F)(F)c1ccc(-c2cc(C(F)(F)F)n3ncc(I)c3c2)cc1
Second: CCNS(=O)(=O)Nc1ccc(C(O)(C(F)(F)F)C(F)(F)F)cc1
The melting point of the first is lower: 130 °C for the first, 178 to 179 °C for the second.

Compared with `CSC(=NCCSCc1ccccn1)NC#N`, `O=C(Nc1ccc(F)cc1F)c1ccccn1` is higher in melting point: 85 to 88 °C for the first, 90.5 to 95 °C for the second.

Compared with `COc1ccc(CN2C(=O)C(CO)(c3ccccc3Cl)c3cc(Cl)ccc32)c(OC)c1` (configuration not stated), `O=C1Nc2c(ccc3ccccc23)SC1c1ccc(Cl)cc1` (configuration not stated) is higher in melting point: 165 °C for the first, 236 to 238 °C for the second.

Compared with `CCNC(=O)N[C@H]1CC[C@H](CCN2CCN(c3cccc4c3CCC4)CC2)CC1`, `CCCCN1CCCC1=NC(=O)Nc1c(C)cccc1C` is lower in melting point: 198 to 200 °C for the first, 93 to 95 °C for the second.

First: Nc1ccc2c(c1)C(=O)C2
Second: NC(=O)CCc1ccc(F)cc1F
The melting point of the first is lower: 92 to 93 °C for the first, 107 to 108 °C for the second.

Compared with `CC(=O)NC(CO)C(=O)c1ccccc1` (configuration not stated), `Cc1cccc(NC(=O)NCC(=O)N(c2ccccc2)C(C(=O)OC(C)(C)C)c2ccc(N)cc2)c1` (racemic) is lower in melting point: 115 to 117 °C for the first, 108 °C for the second.

First: OC1(c2cncnc2)CN2CCC1CC2 (configuration not stated)
Second: Cc1cc(=O)[nH]nc1-c1ccc2c(c1)CCC1(CCN(C3CCC3)CC1)O2
The melting point of the first is lower: 126 to 127 °C for the first, 270 to 272 °C for the second.

First: CC(C)(C)N1CCN(c2cc3c(cc2F)c(=O)c(C(=O)O)cn3C2CC2)CC1
Second: CC(C)(C)OC(=O)Nn1c(=O)cc2n(C3CC3)c3cc(N4CCN(C(=O)OC(C)(C)C)CC4)c(F)cc3n2c1=O
The melting point of the first is higher: 257 to 260 °C for the first, 219 to 220 °C for the second.

First: CCOC(=O)c1c(C)nc(N2CCNCC2)nc1N1CCS(=O)(=O)CC1
Second: CNc1nc(C)c(-c2ccnc(Nc3ccc(N4CCNCC4)cc3)n2)s1
The melting point of the first is lower: 154 to 159 °C for the first, 253 to 255 °C for the second.

First: Cc1ccc(S(=O)(=O)OCC2Cc3cccc(-c4cccc(F)c4)c3O2)cc1 (configuration not stated)
Second: COc1ccc(-c2cc(F)cc3c2OC(CN)C3)c(OC)c1 (configuration not stated)
The melting point of the first is lower: 88 to 90 °C for the first, 141 to 143 °C for the second.

Compared with `CN1CCC(OC(c2ccccc2)c2nc3cccc(N)c3[nH]2)CC1` (configuration not stated), `COc1ccc2[nH]c(C(=O)N[C@H]3CCN(C(=O)c4cc(Cl)cc(Cl)c4)[C@H](Cc4ccccc4)C3)cc2c1` (relative stereo) is higher in melting point: 96.7 °C for the first, 251 °C for the second.

Compared with `CSc1sc(-c2nc(C)no2)c2c1C(=O)CC(C)(C)C2`, `CCOC(=O)c1cc2c(s1)-n1c(C)nnc1CN=C2c1ccccc1Cl` is lower in melting point: 177 to 180 °C for the first, 148 to 150 °C for the second.

Compared with `CCc1nc2c(-c3cc4c(cc3C)OCC4)ncnc2n1C(C1CC1)C1CC1`, `COc1cc2nc(N3CCC(=O)CC3)nc(N)c2cc1OC` is higher in melting point: 147 to 148 °C for the first, 228 to 230 °C for the second.

First: N#Cc1ccccc1Sc1ccccc1[N+](=O)[O-]
Second: NN(Cc1ccccc1[N+](=O)[O-])c1ccc(Cl)cc1
The melting point of the first is higher: 166 to 167 °C for the first, 105 to 106 °C for the second.

First: N=C(Nc1ccc(Cl)cc1)Nc1ncccc1OCc1c(F)ccc(F)c1F
Second: OCCc1nccn1CCCCc1ccc(OCc2coc(/C=C/c3ccc(Cl)cc3)n2)cc1
The melting point of the first is higher: 153 to 156 °C for the first, 127 to 128 °C for the second.

First: COC(=O)c1cc(C=O)cnc1C1=NC(C)(C(C)C)C(=O)N1 (configuration not stated)
Second: CCc1nn2ccccc2c1-c1n[nH]c(=O)cc1C
The melting point of the first is lower: 113 to 117 °C for the first, 216 to 217 °C for the second.

First: COc1ccc(Cc2cc(I)ccc2OC)cn1
Second: COc1ccc(-c2ncccc2O)cc1OC
The melting point of the first is lower: 68 to 70 °C for the first, 150 to 155 °C for the second.

First: Cc1nc2c(cc1CCCO)c(=O)c(C(=O)NCc1ccc(Cl)cc1)cn2C
Second: O=C(O)c1ccc2cc(OCCN3CCN(c4ccc(Cl)cc4)CC3)ccc2c1
The melting point of the first is lower: 176 to 177 °C for the first, 197 to 199 °C for the second.

First: CCCCCCCCCCCCCCOc1ccc(C(=O)OC)cc1OC
Second: COc1cc(OCc2ccccn2)ccc1/C=C/C(=O)CC(=O)/C=C/c1cc2ccccc2[nH]1
The melting point of the first is lower: 50 to 51 °C for the first, 178 to 179 °C for the second.

First: OC(COc1cccc(-c2cc[nH]n2)c1)CN1CCN(c2ccc(Cl)cc2)CC1 (configuration not stated)
Second: C=CCOc1ccc2c(ccc(=O)n2CC=C(C)C)c1
The melting point of the first is higher: 152 to 153 °C for the first, 80 to 82 °C for the second.

First: CCOC(=O)NC(=S)N1CC1C#N (configuration not stated)
Second: C/C(NCC(C)C)=C(\C#N)C(N)=S
The melting point of the first is lower: 152 to 155 °C for the first, 165 to 167 °C for the second.

Compared with `CC(=Cc1cn(C)c2ccc3c(c12)CCCO3)[N+](=O)[O-]`, `CN(C)C(=S)SC(C[N+](=O)[O-])c1ccco1` (configuration not stated) is lower in melting point: 200 to 202 °C for the first, 67 to 68 °C for the second.

First: C=CC(=O)N1CCC(C(=O)O)CC1
Second: C=CCSc1nnc(OCC)c2c1CCCC2
The melting point of the first is higher: 109 to 110 °C for the first, 39 to 41 °C for the second.

First: CCC(O)(CC)c1cc(C)c(-c2cc(OCc3ccc(CO)c(CO)c3)ccc2C)c(C)c1
Second: CC(C)n1c(C=O)c(-c2ccc(F)cc2)c(-c2ccc(F)cc2)c1C(=O)OCc1ccccc1
The melting point of the first is higher: 128 °C for the first, 94 to 95 °C for the second.

First: CC(C)(C)OC(=O)NC(C(=O)Oc1ccc(/C=c2\[nH]c(=O)/c(=C/c3ccccc3)[nH]c2=O)nc1)c1ccccc1 (configuration not stated)
Second: CCOCc1nc2c(N)nc3ccccc3c2n1CCCCS(=O)(=O)N(C)C
The melting point of the first is higher: 198 °C for the first, 173 to 174 °C for the second.

First: CCOP(=O)(OCC)SCS(=O)C(C)(C)C (configuration not stated)
Second: CN1CC2Cc3ccc(Cl)cc3C(O)C2C1 (configuration not stated)
The melting point of the first is lower: 34.5 to 36 °C for the first, 178 to 182 °C for the second.
